# Laboratory results as given in a melting point compilation (Tetko et al.; mined from patent text by program, amines drawn as free bases though some values may be those of a salt).
row,Structure (SMILES),melting point [°C]
1,C=C(C)CN1Cc2cc(Cl)cc3[nH]c(=O)n(c23)CC1C (stereo unspecified),175
2,CC(C)c1cc(C(=O)Nc2ccc(C(=O)O)cc2)sc1C(C)C,219 to 221
3,O=C(Nc1ccc2[nH]nnc2c1)N1CCN(c2nc(-c3ccccc3)ns2)CC1,271 to 272
4,O=C(CN1CCC(n2c(=O)[nH]c3ccccc32)CC1)Nc1ccc(C2CCCCC2)cc1,130 to 132
5,N#Cc1ccc(Cn2c3cc(O)c(O)cc3c3c(Br)cc(O)c(O)c32)cc1,> 260
6,O=c1[nH]c2cc(F)c(Cl)c(F)c2[nH]c1=O,> 250
7,O=C(CCCl)c1ccc2c(c1)Cc1cc(C(=O)CCCl)ccc1O2,180 to 181
8,CC(=O)N1CCN(c2ncc3c(=O)c(C(=O)O)c[nH]c3n2)CC1,298 to 300
9,FC(F)(F)c1[nH]c(-c2ccc(Cl)cc2)c(Br)c1C(F)(F)F,64.5 to 65
10,CNC(=O)c1cc(Br)cc(I)c1,205
11,COc1cc2c(cc1-c1c(C)nn(C)c1C)-c1c(-c3cccs3)c3c(n1CC2)C(=O)N(C(C)C)CCN(C(=O)CCC(F)(F)F)C3,256 to 258
12,O=C(c1ccc2nonc2c1)N1CCCCC1,88.5 to 90.5
13,CCOC(=O)c1cc(C(=O)OCC)n(C(C)c2ccccn2)n1 (stereo unspecified),63 to 65
14,CCn1nc2c(N)nc3c(c2c1CC(C)(C)O)CCCC3,202 to 204
15,Nc1sc2c(c1C(=O)c1ccc(OCc3ccccc3)cc1)CCN(C(=O)OCc1ccccc1)C2,151 to 152
16,Nc1cc(-n2cccc2)ccc1Nc1cccc(-n2ccnc2)c1,207 to 212
17,COC(=O)c1csc(C)c1S(=O)(=O)NC(=O)Nc1nc(C)nc(OC)n1,195
18,O=C(O)Cc1cccc2c(-c3ccccc3Cl)nccc12,190
19,NS(=O)(=O)c1ccc(-c2cc(C(=O)CCCO)nn2C2CCCCC2)cc1,152 to 154
20,Cc1nc(-n2cnn(Cc3ccc(F)cc3)c2=O)sc1-c1nn[nH]n1,136 to 139
21,Cc1c(Cl)cccc1-n1c(=O)[nH]c2cccnc21,224 to 225
22,Ic1cnc(N2CCNCC2)nc1,39 to 40

row,Structure (SMILES),melting point [°C]
1,COc1cccc(COc2cncc(Cl)n2)c1,111 to 113
2,COc1ccc2c(c1)c(=O)n1nc(C#N)cc1n2C,316 to 320
3,N#CN1CCC2(CC1)CN(c1ccccc1[N+](=O)[O-])c1cc(Cl)ccc12,163 to 165
4,CC#CCOc1ccc(S(=O)(=O)C(C(=O)NO)c2ccc(Cl)cc2)cc1 (stereo unspecified),140
5,Nc1cc([N+](=O)[O-])cc2c1CCCC2,77
6,CCNC(=O)Cn1c(=O)c(=O)[nH]c2ccc3ccc(-n4c(C)ccc4C)cc3c21,> 285
7,Cc1oc2c(-c3ccc(F)cc3)c(-c3ccc(S(C)(=O)=O)cc3)nn2c1-c1ccc(Cl)s1,222 to 223
8,CCCN(CCC)CC1CCCCN1CCNC(=O)N1c2ccccc2C(=O)Nc2cccnc21 (stereo unspecified),165
9,Nc1nc2c(s1)CC(CN1CCN(c3ccccn3)CC1)CC2 (stereo unspecified),177 to 179
10,CN(CCCl)S(=O)(=O)c1ccc2ccccc2c1,101
11,O=C1CC(c2ccc(OCc3ccccc3)cc2)CN1O (stereo unspecified),150 to 155
12,Cc1nc(-c2ccc(C(F)(F)F)cc2)oc1COc1ccc(/C=C/C(=O)O)cc1,193
13,CN(CCCC(=O)Nc1ccc2[nH]ncc2c1)Cc1ccccc1,115 to 117
14,O=C(O)CCCCCCCCC=Cc1ccco1,45 to 46
15,Nc1nc(-n2cc(C(=O)O)c(=O)c3cc(F)c(NCCCO)c(Cl)c32)c(F)cc1F,136 to 142
16,N#Cc1ccccc1C(=O)c1ccc(S)cc1,102
17,COc1cnc2c(c1)c(CCNC(=O)c1ccco1)c1n2CCCO1,70 to 71
18,Cc1noc(NS(=O)(=O)c2ccccc2-c2ccc(-c3ncco3)cc2CN(C)C(=O)Cc2ccccc2)c1C,114 to 122
19,NC(=O)Cc1cc(Oc2ccc3c(ccn3C(=O)Nc3ccc(-c4cccnc4)c(C(F)(F)F)c3)c2)ncn1,171 to 172
20,CC(C)(C)C(NC(=O)c1ccc(Cl)cc1)Nc1c(Nc2ccc(Cl)nc2)c(=O)c1=O (stereo unspecified),258 to 259
21,Cc1cc(C(=O)Nc2ccccc2O)cc(Cl)c1O,192 to 194
22,CCOC(=O)c1cn(-c2cccc(OC3CCCC3)c2)cn1,66 to 67

row,Structure (SMILES),melting point [°C]
1,Nc1nc(-c2ccccc2)c(CCO)c2ncnn12,194 to 195
2,COc1ccc(-c2ccc3c(c2)C=C(C(=O)Nc2ccc(CN(C)C4CCC(=O)CC4)cc2)CCS3)cc1,133 to 139
3,COC(=O)CCC(=O)c1ccc(NC(=O)C(C)C)c(N)c1,178
4,COC(=O)[C@@H]1C[C@@H](OS(C)(=O)=O)CN1C(=O)C1(C)CC1,102 to 103
5,Cc1noc(NS(=O)(=O)c2ccsc2C/C=C/c2ccc3c(c2)OCO3)c1Br,147 to 149
6,C=CC(=O)N1CCSC1c1cc(C(C)(C)C)c(O)c(C(C)(C)C)c1 (stereo unspecified),147 to 149
7,Cc1c(CCC(=O)c2c[nH]c3ccccc23)ncn1C(c1ccccc1)(c1ccccc1)c1ccccc1,225 to 227
8,Cc1c(CCl)nc2c(NC(=O)C(C)(C)C)cccn12,168
9,O=C1N(Cc2ccc(Cl)cc2)c2ccc(Br)cc2C1(O)c1ccc2c(c1)OCO2 (stereo unspecified),179 to 180
10,COC(=O)C=C(Nc1ccc(CC(=O)OC)cc1)C(F)(F)F,50 to 51
11,COc1ccc(C(Cl)=C(C#N)c2ccc(OC)cc2)cc1,140 to 142
12,CC=C1CCC2C3CC=C4CC(OC(C)=O)CC(OC(C)=O)C4(C)C3CCC12C (stereo unspecified),90 to 91
13,O=C1OC(O)(C(F)(F)F)c2cccc(O)c21 (stereo unspecified),128 to 129
14,CSCC(=O)c1ccc(O)c(O)c1,107
15,NC(=O)NCCNc1ccc([N+](=O)[O-])cc1Cl,188
16,Clc1ccccc1CSc1nc2cccc3c2n1CCC3,157 to 159
17,CCNC(=O)Nc1ccccc1,99 to 100
18,CCS(=O)(=O)c1ccc(N)cc1S(=O)(=O)NC(C)(C)C,193 to 195
19,O=C(O)c1cc(CCl)ccc1O,144 to 147
20,O=C(c1ccc(Cl)cc1)c1ccc(OC(F)(F)F)cc1,74.5 to 75
21,Cc1c(C(=O)O)nc2c(=O)[nH]c3cc(F)ccc3n12,> 250
22,O=c1c2c(nc3ccc(Cl)cn13)CCC2,146 to 147

row,Structure (SMILES),melting point [°C]
1,CCCCCOc1ccc(C2SC(=O)NC2=O)cc1OCC (stereo unspecified),104 to 106
2,CCCCSc1cc(C(=O)O)cc(N)c1Oc1ccccc1,131 to 132
3,CCC(O)c1c(S(N)(=O)=O)nn(C)c1C(C)(C)C (stereo unspecified),113 to 115
4,O=C(O)c1cc(Cl)cc2c1[nH]c1ccccc12,245
5,O=C(Nc1cccc(Br)c1)Oc1ccccc1,88 to 90
6,COc1cc(OC)nc(NS(=O)(=O)C(C#N)C(C)C)n1 (stereo unspecified),91 to 93
7,O=C(Cl)N1CC(Oc2ccc(F)cc2)C1,44 to 52
8,CN(C)C(=O)N(C)c1cc(C(C)(C)C)on1,90 to 91
9,CCOC(=O)c1c(NC(C)=O)sc2c1C=CC=CC=CC=CC=C2,54 to 74
10,O=C(Nc1ccc(-n2nc(C(F)(F)F)cc2Br)cc1)c1cccc(F)c1F,109 to 112
11,CC(NOCc1ccccc1)c1cc2ccccc2s1 (stereo unspecified),55 to 56
12,Cc1c(Br)c2c(c(C)c1NC(=O)OC(C)(C)C)CC(C)(C)O2,115 to 117
13,COc1cc2c(cc1OC)CC(NCC(=O)O)C2,250
14,CCN1CCN(c2cccc3c2CC(NC(=O)c2ccc(N4CCOCC4)cc2)CC3)CC1 (stereo unspecified),204 to 206
15,Cc1ccccc1C(=O)Nc1cccc(C(C)C)c1,70 to 71
16,CCOC(=S)Cc1nc2ccccc2s1,45 to 48
17,Nc1ccc(-c2ncccn2)cc1,236 to 238
18,CC(C)c1ccc(N(Cc2ccc(O)cc2)C(=O)C2CCCc3c(O)cccc32)cc1 (stereo unspecified),241 to 243
19,CN1C(=O)[C@H](NC(=O)CCNc2ccccc2)N=C(c2ccccc2)c2ccccc21,218 to 221
20,NNc1nccc(-c2ccc3c(ccn3-c3ccccn3)c2)c1Cl,173
21,COc1ccc(Cc2nc3c(c4c2[nH]c2ccccc24)C(O)CC(C)(C)C3)cc1 (stereo unspecified),146
22,CCOC(=O)CCSc1nnsc1-c1ccc(C)cc1,68.5 to 69.5

row,Structure (SMILES),melting point [°C]
1,COC(=O)c1ccc(C#CC(O)c2cccc3c2OCCC3(C)C)cc1O (stereo unspecified),122 to 123
2,Cc1cccc2nc3sc(Cl)cn3c(=O)c12,162 to 166
3,CCOC1CC2(C)C(CCC3C4CCC(C(=O)CBr)C4(C)CC(=O)C32)CC1O (stereo unspecified),74 to 78
4,COc1cccc(C23CCCC=C2C(=O)NC(=O)C3)c1 (stereo unspecified),230 to 232
5,CCOC(=O)c1c(C(F)(F)F)nn(-c2c(Cl)cc(Cl)cc2Cl)c1N,114 to 116
6,CCCCc1nc(O)c(CC(=O)O)c(=O)n1Cc1ccc(C(=O)O)cc1,260
7,CN1CCN2c3ccccc3Cn3cccc3C2C1 (stereo unspecified),98 to 100
8,CNC(=NCCCCc1nccs1)NC#N,87 to 89.5
9,CN(C)C1(c2ccccc2)CCC(CNC(=S)NCCc2c[nH]c3ccccc23)CC1 (stereo unspecified),92 to 95
10,COC(C)(C)c1cc(C(C)(C)OC)cc(C(C)(C)OC)c1,44
11,Cc1ccccc1-c1nc(OCCN(C)C)ncc1N(C)C(=O)C(C)(C)c1cc(C(F)(F)F)cc(C(F)(F)F)c1,140 to 141
12,CCCC(=O)c1cc2nc(CO)n(C)c2cc1C,142
13,CC(C)Cn1c(OCc2ccccc2)noc1=O,53 to 60
14,COc1ccc2c(c1)Sc1cc(OC)c(Cl)cc1C(=O)C2,186 to 188
15,CCN(CC)CCNC(=O)c1cc(Cl)c(N)cc1OCCCS(C)=O (stereo unspecified),116 to 117
16,CCc1cc(OCc2ccc3oc(-c4ccccc4C(=O)O)nc3c2)c2c(n1)CCCC2,229 to 231
17,CCCCCCCCCCc1nnnn1CC(=O)Nc1c(C(C)C)cccc1C(C)C,71 to 73
18,CS(=O)(=O)c1ccc(-c2cnn(CC(F)(F)F)c(=O)c2OCCN2CCCCC2)cc1,117 to 118
